# Values quoted from earlier work, collected in US20250064831A1 (Acerus Biopharma Inc., priority 2012, published 2025).
# Assays:
# [1] = polyethylene glycol (200 mg/ml), high variations
# [2] = progesterone/cyclodextrin powder mixtures, nasal
# [3] = in vivo
SMILES,duration of serum level [1],serum level decrease [2],elimination half-lives [3]
CC(=O)[C@H]1CC[C@H]2[C@@H]3CCC4=CC(=O)CC[C@]4(C)[C@H]3CC[C@]12C [progesterone],at least 8 hours,≤ 20 min,
"CN(C)CC(=O)O[C@H]1CC[C@H]2[C@@H]3CCC4=CC(=O)CC[C@]4(C)[C@H]3CC[C@]12C [testosterone 17β-N,N-dimethylglycinate]",,,about 55 min
